Source: patent publication US10040788B2, “1,3,4-thiadiazole compounds and their use in treating cancer” (AstraZeneca AB, priority 2014, dated 2018)

How the values were obtained:
NCI-H1703 cells = experiment: GLS Cell Proliferation Assay (NCI-H1703); assay type: cell-based, human; conditions: Homo sapiens, 120 h; NCI-H1703 cells, 5 days incubation; geometric mean where repeated; read-out: Assay c) GLS Cell Proliferation Assay
NCI-H3122 xenograft = experiment: Mouse Xenograft Model, monotherapy (NCI-H3122); assay type: in vivo; conditions: Female Harlan Nude mice, NCI-H3122 s.c., 50 mg/kg once daily peroral for 17 days
Method: Female Harlan Nude mice were transplanted s.c. with human NSCLC NCI-H3122 cells to determine the in-vivo anti-tumour activity of GLS inhibitors. 5×10^6 cells in 50% matrigel (BD Bioscience) were injected s.c. on the left flank of the animals. Animals were randomised into groups of 10-15 when tumours reached a volume of ˜200-300 mm^3 and treatment commenced. […] Tumours were measured twice weekly by calliper and volume of tumours calculated using elliptical formula (π/6×width×width×length). Statistical significance was evaluated using a one tailed, t-test. Example 2 was formulated in a 1% Polysorbate 80 and pH adjusted with 1M HCL to a final pH concentration of pH3.5. Data is presented as mean tumour volume with calculated mean standard error bars.

NCI-H1703 xenograft = experiment: Mouse Xenograft Model, combination therapy (NCI-H1703); assay type: in vivo; conditions: Male Scid mice, NCI-H1703 s.c.
Method: Male Scid mice were transplanted s.c. with human NSCLC NCI-H1703 cells (ATCC-CRL-5889) to determine the in-vivo anti-tumour activity of GLS inhibitors. 1×10^7 cells in 50% matrigel (BD Bioscience) were injected s.c. on the left flank of the animals.
Animals were randomised into groups of 10-12 when tumours reached a volume of ˜200-300 mm^3 and treatment commenced. […] Tumours were measured twice weekly by calliper and volume of tumours calculated using elliptical formula (π/6×width×width×length). Statistical significance was evaluated using a one tailed, t-test. Taxotere® (Sanofi) was formulated in a physiological saline. Example 2 was formulated in a 1% Polysorbate 80 and pH adjusted with 1M HCL to a final pH concentration of pH3.5. Data is presented as mean tumour volume with calculated mean standard error bars.

GLS1 = GLS1 (Homo sapiens (Human), UniProt O94925); experiment: GLS Enzyme Potency Assay (Glutamate Oxidase/AmplexRed coupled assay); assay type: biochemical; conditions: 6His tagged GLS protein (amino acids 63-669); geometric mean where repeated
Text: The following assays were used to measure the effects of the compounds of the present invention: a) GLS Enzyme Potency Assay; b) GLS Cell Potency Assay; c) GLS Cell Proliferation Assay; and d) Mouse Xenograft Model. During the description of the assays, generally: • i. The following abbreviations have been used: CO2=Carbon dioxide; DMEM=Dulbecco's Modified Eagle Medium; DMSO=Dimethyl sulphoxide; EDTA=Ethylenediaminetetraacetic acid; EGTA=Ethylene glycol tetraacetic acid; FCS=Foetal calf serum; h=Hour(s); NBS=Non-binding surface; SDS=Sodium dodecyl sulphate; r.t.=room temperature; TRIS=Tris(Hydroxymethyl)aminomethane. • ii. IC50 values were calculated using a smart fitting model in Genedata. […] Assay a): GLS Enzyme Potency Assay
A Glutamate Oxidase/AmplexRed coupled assay was used to measure the ability of compounds to bind to and inhibit the activity of GLS1 in vitro. […] GLS1 was diluted to 2× working concentration and incubated at r.t. to allow the tetrameric/dimeric forms to reach steady state. Assay measurements were performed in buffer comprising 50 mM TRIS pH 7.8, 100 mM NaPO4, pH 7.8, 0.001% v/v Tween20. […] DMSO concentration was maintained at 2% by back filling with DMSO solution. […] 3 μL of 100 mM glutamine diluted in assay buffer was then added and the reaction incubated at r.t. for 60 minutes. […] An artefact version of the assay where the 6His tagged GLS protein and glutamine were replaced with assay buffer was also used to rule out non specific effects on the assay components.

cellular GLS activity = cellular GLS activity (Homo sapiens (Human), UniProt O94925); experiment: GLS Cell Potency Assay (PC3 coupled assay measuring cellular glutamate depletion); assay type: cell-based; conditions: PC3 cells, 6 h incubation, cellular glutamate depletion; geometric mean where repeated; read-out: Assay b) GLS Cell Potency Assay IC50
Text: The following assays were used to measure the effects of the compounds of the present invention: a) GLS Enzyme Potency Assay; b) GLS Cell Potency Assay; c) GLS Cell Proliferation Assay; and d) Mouse Xenograft Model. During the description of the assays, generally: • i. The following abbreviations have been used: CO2=Carbon dioxide; DMEM=Dulbecco's Modified Eagle Medium; DMSO=Dimethyl sulphoxide; EDTA=Ethylenediaminetetraacetic acid; EGTA=Ethylene glycol tetraacetic acid; FCS=Foetal calf serum; h=Hour(s); NBS=Non-binding surface; SDS=Sodium dodecyl sulphate; r.t.=room temperature; TRIS=Tris(Hydroxymethyl)aminomethane. • ii. […]
Compounds were assessed for their potential to inhibit cellular GLS activity by use of a PC3 coupled assay measuring cellular glutamate depletion. […] DMSO concentration was maintained at 0.3% by back filling with DMSO solution. PC3 cells were grown in phenol free DMEM, 10% dialyzed FCS, 2 mM glutamine and following dispersal by trypsinisation were plated at 5.6×10^3 cells per well in 40 μl of growth medium directly into the 384 well assay plates containing dispensed compound. After incubation for 6 h at 37° C., 5% CO2 growth media was aspirated and cells lysed in 15 μl of buffer containing 10 mM TRIS pH7.4, 100 mM NaCl, 1 mM EDTA, 1 mM EGTA, 1 mM NaF, 20 mM Na4P2O7, 2 mM Na3VO4, 1% Triton X-100, 10% glycerol, 0.1% SDS and 0.5% deoxycholate.

Sequence of GLS1 (O94925 63-669): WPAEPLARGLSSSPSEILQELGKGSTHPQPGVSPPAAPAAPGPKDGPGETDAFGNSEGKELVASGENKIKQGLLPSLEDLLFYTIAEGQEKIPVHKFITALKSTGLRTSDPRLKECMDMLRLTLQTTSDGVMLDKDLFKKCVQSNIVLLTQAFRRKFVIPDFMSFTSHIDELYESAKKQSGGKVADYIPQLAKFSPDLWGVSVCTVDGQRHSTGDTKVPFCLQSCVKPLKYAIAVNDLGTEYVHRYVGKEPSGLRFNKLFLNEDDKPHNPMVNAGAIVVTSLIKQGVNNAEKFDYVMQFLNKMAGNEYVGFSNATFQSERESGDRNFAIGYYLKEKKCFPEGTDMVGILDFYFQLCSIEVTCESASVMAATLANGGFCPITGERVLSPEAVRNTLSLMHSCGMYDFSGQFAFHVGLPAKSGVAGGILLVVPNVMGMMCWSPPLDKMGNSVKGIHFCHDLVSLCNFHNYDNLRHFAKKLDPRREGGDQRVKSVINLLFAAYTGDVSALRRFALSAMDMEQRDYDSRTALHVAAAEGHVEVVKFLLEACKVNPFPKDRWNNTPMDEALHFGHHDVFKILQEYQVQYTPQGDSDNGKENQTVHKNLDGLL
Sequence of cellular GLS activity (O94925 55-669): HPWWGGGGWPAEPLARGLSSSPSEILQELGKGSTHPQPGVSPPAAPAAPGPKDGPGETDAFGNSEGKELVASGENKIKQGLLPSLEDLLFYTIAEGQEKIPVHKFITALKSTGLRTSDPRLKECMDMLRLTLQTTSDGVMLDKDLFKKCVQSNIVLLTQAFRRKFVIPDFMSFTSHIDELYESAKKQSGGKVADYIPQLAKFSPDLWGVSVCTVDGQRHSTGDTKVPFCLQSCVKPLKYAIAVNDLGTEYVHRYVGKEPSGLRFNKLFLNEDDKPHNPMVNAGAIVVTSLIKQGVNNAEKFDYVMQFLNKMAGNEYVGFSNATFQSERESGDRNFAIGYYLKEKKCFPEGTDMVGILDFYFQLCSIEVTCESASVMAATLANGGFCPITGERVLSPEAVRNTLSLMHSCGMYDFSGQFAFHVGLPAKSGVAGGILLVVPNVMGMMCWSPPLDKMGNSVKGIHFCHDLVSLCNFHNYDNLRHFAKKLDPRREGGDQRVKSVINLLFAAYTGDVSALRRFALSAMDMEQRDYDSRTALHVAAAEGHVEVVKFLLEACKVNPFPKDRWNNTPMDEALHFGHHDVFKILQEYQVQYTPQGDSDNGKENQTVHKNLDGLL

IC50 (NCI-H1703 cells) [nM] | IC50 (GLS1) [nM] | IC50 (cellular GLS activity) [nM] | Structure (SMILES) | Tumour growth (mean tumour volume), FIG. 2 (NCI-H3122 xenograft) | Tumour growth (mean tumour volume), FIG. 3 (NCI-H1703 xenograft; 100 mg/kg once daily peroral for 16 days in combination with once weekly i.v. Taxotere, compared to Taxotere monotherapy) | Tumour growth (mean tumour volume), FIG. 3 (NCI-H1703 xenograft; 100 mg/kg once daily peroral for 16 days, monotherapy)
4.85 | – | – | CO[C@H](C(=O)Nc1nnc(N[C@@H]2CCN(c3cccnn3)C2)s1)c1ccccc1 [Example 2(a), (2S)-2-Methoxy-2-phenyl-N-[5-[[(3R)-1-pyridazin-3-ylpyrrolidin-3-yl]amino]-1,3,4-thiadiazol-2-yl]acetamide] | inhibition of growth in-vivo | slight regression | inhibition of growth in-vivo
93.1 | 88.1 | 12 | CCO[C@H](C(=O)Nc1nnc(N[C@@H]2CCN(c3nccnn3)C2)s1)c1ccccc1 [34(a), (2S)-2-ethoxy-2-phenyl-N-[5-[[(3R)-1-(1,2,4-triazin-3-yl)pyrrolidin-3-yl]amino]-1,3,4-thiadiazol-2-yl]acetamide] | – | – | –
630 | 135 | 56.1 | COc1ccc([C@@H](OC)C(=O)Nc2nnc(N[C@@H]3CCN(c4cccnn4)C3)s2)cc1OC [25(b), (2R)-2-(3,4-dimethoxyphenyl)-2-methoxy-N-[5-[[(3R)-1-pyridazin-3-ylpyrrolidin-3-yl]amino]-1,3,4-thiadiazol-2-yl]acetamide] | – | – | –
107 | 70.7 | 4.99 | COc1cc([C@@H](OC)C(=O)Nc2nnc(N[C@@H]3CCN(c4nccnn4)C3)s2)ccc1F [32(b), (2R)-2-(4-fluoro-3-methoxy-phenyl)-2-methoxy-N-[5-[[(3R)-1-(1,2,4-triazin-3-yl)pyrrolidin-3-yl]amino]-1,3,4-thiadiazol-2-yl]acetamide] | – | – | –

Structure (SMILES) | IC50 (NCI-H1703 cells) [nM] | IC50 (GLS1) [nM] | IC50 (cellular GLS activity) [nM] | Tumour growth (mean tumour volume), FIG. 2 (NCI-H3122 xenograft) | Tumour growth (mean tumour volume), FIG. 3 (NCI-H1703 xenograft; 100 mg/kg once daily peroral for 16 days in combination with once weekly i.v. Taxotere, compared to Taxotere monotherapy) | Tumour growth (mean tumour volume), FIG. 3 (NCI-H1703 xenograft; 100 mg/kg once daily peroral for 16 days, monotherapy)
CO[C@@H](C(=O)Nc1nnc(N[C@@H]2CCN(c3cccnn3)C2)s1)c1cccc(OC(F)(F)F)c1 [Example 9(b), (2R)-2-Methoxy-N-[5-[[(3R)-1-pyridazin-3-ylpyrrolidin-3-yl]amino]-1,3,4-thiadiazol-2-yl]-2-[3-(trifluoromethoxy)phenyl]acetamide] | 4.4 | 32.9 | 2.3 | – | – | –
